Assay results published in ChEMBL document CHEMBL1129469, “Nonpeptide angiotensin II receptor antagonists: the next generation in antihypertensive therapy” (J Med Chem, 1996).
Substitutions are numbered along the chain they refer to. Blank lines part the entries; values can stand above or below the compound they belong to.

Key:
[1] = Oral bioavailability in rat; format: ADME, organism-based; conditions: in vivo
[2] = molecular target: T1, Angiotensin II receptor (AT-1) type-1 (Rattus norvegicus, UniProt P29089+P25095); test: In vitro antagonistic potency against Angiotensin II receptor, type 1 in rat liver; format: functional, tissue-based
T1 sequence (P29089 whole entry): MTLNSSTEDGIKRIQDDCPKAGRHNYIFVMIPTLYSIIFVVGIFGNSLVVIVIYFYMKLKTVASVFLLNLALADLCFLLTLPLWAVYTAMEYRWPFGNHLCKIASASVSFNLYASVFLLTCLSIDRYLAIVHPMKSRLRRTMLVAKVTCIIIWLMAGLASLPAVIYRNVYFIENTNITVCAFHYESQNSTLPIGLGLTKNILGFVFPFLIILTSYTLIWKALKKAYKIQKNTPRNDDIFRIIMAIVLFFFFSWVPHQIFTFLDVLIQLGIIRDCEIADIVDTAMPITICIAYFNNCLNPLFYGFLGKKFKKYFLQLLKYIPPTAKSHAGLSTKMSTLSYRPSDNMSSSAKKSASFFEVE
T1 sequence (P25095 whole entry): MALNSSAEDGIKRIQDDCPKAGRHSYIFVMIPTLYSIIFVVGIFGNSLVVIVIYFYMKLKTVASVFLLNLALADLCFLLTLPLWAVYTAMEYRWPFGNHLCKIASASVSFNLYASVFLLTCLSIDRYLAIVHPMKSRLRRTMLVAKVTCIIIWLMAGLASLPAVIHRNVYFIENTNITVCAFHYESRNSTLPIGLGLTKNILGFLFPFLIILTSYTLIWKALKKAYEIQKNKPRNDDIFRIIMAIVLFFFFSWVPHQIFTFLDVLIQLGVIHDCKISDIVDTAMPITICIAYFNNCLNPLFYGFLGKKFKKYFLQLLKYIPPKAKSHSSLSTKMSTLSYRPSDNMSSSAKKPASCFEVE

[3] = organism: Oryctolagus cuniculus; test: Compound was tested for its antagonistic activity against angiotensin II-induced contractions in rabbit aorta; format: functional
[4] = molecular target: T1, Angiotensin II receptor (AT-1) type-1; test: In vitro antagonistic potency against Angiotensin II receptor, type 1 in rat liver using [125I]-Sar1-Ile8-Ang II as radioligand; format: functional, tissue-based
[5] = molecular target: T2, Type-2 angiotensin II receptor (Homo sapiens, UniProt P50052); test: Inhibition of Angiotensin II receptor, type 2
T2 sequence (P50052 whole entry): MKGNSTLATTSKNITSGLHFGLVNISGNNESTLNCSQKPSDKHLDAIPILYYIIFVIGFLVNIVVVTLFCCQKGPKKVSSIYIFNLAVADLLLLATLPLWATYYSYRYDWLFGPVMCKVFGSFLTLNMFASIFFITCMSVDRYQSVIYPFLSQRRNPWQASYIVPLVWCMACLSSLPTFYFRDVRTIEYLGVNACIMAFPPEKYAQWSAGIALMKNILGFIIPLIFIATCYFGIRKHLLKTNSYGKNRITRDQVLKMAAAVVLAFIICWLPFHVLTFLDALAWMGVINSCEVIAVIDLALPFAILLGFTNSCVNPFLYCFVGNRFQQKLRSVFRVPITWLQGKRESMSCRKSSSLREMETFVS

[6] = molecular target: T3, Type-1 angiotensin II receptor (Homo sapiens, UniProt P30556); test: (§1) Inhibition of Angiotensin II receptor, type 1
T3 sequence (P30556 whole entry): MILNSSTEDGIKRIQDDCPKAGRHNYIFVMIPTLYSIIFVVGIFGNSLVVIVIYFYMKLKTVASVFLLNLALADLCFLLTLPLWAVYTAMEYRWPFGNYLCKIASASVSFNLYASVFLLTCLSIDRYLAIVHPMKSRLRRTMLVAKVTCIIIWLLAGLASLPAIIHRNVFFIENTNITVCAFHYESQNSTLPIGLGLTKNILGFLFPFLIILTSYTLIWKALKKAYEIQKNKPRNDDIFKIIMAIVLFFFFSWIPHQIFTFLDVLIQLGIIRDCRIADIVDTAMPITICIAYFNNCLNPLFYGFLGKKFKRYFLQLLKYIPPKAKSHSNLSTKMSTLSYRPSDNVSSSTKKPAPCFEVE

[7] = molecular target: T1, Angiotensin II receptor (AT-1) type-1; test: In vitro antagonistic potency against Angiotensin II receptor, type 1 in rat adrenal cortex; format: functional, tissue-based
[8] = molecular target: T4, Type-2 angiotensin II receptor (Rattus norvegicus, UniProt P35351); test: Inhibitory activity at Angiotensin II type 2 receptor.
T4 sequence (P35351 whole entry): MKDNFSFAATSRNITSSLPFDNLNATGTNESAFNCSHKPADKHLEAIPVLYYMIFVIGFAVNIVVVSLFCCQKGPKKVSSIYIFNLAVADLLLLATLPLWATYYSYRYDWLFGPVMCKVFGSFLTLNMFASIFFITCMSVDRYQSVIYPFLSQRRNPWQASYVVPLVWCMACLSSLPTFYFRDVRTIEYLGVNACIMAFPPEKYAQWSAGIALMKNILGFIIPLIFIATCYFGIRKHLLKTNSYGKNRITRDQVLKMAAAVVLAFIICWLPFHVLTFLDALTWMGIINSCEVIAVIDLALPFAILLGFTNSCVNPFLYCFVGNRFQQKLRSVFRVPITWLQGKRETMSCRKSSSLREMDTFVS

[9] = molecular target: T1, Angiotensin II receptor (AT-1) type-1; test: Inhibitory activity against Angiotensin II receptor type 1 in rat adrenal membrane; format: cell membranes
[10] = test system: Rattus norvegicus; test: Intravenous effective dose required for lowering blood pressure in renal hypertensive rats (RHR); format: functional
[11] = organism: Rattus norvegicus; test: Oral effective dose required for lowering blood pressure in renal hypertensive rats (RHR); format: functional
[12] = molecular target: T5, Type-1 angiotensin II receptor (Oryctolagus cuniculus, UniProt P34976); test: as §1
T5 sequence (P34976 whole entry): T3 sequence (P30556 whole entry) with I2M, V49A, I254V, I270V, R272H, R311K, T349S, A353V

[13] = molecular target: T1, Angiotensin II receptor (AT-1) type-1; test: Inhibitory activity against Angiotensin II receptor, type 1 in rat aortic membranes; format: cell membranes
[14] = Oral bioavailability in dog; format: ADME, organism-based, Canis lupus familiaris; conditions: in vivo
[15] = molecular target: T1, Angiotensin II receptor (AT-1) type-1; test: Inhibitory activity against Angiotensin II receptor, type 1; format: protein assay

SMILES: CCc1nc(C2CC2)c(C(N)=O)n1Cc1ccc2oc(-c3ccccc3NS(=O)(=O)C(F)(F)F)c(Br)c2c1
Log Ki [4]: -9.3
pKB [3]: 9

SMILES: CCCCC(=O)Nc1ccc(Br)c(-n2nc(CC)n(Cc3ccc(-c4ccccc4S(=O)(=O)NC(=O)OC(C)(C)C)cc3F)c2=O)c1
IC50 [5]: 0.12 nM
IC50 [6]: 0.2 nM

SMILES: CCCCCCC(C(=O)O)n1cnc(NC(=O)c2cccc(O)c2C(=O)O)c1 (stereo not drawn)
Ki [7]: 4400 nM
Kb [3]: 78 nM

SMILES: CCc1nc2c(C)cc(C)nc2n1Cc1ccc(-c2ccccc2S(=O)(=O)NC(=O)C(c2ccccc2)c2ccccc2)cc1
IC50 [5]: 18 nM
IC50 [6]: 0.05 nM

SMILES: CCCCOC(=O)NS(=O)(=O)c1ccc(CCC)cc1-c1ccc(Cn2c(CC)nc3c(C)cc(C)nc32)cc1
IC50 [5]: 6.1 nM
IC50 [6]: 1.5 nM

SMILES: CCCCc1nc2ccn(CC(=O)N(c3ccccc3)c3ccccc3)c(=O)c2n1Cc1ccc(-c2ccccc2-c2nnn[nH]2)cc1
IC50 [8]: 300 nM

SMILES: CCCNC(=O)NS(=O)(=O)c1ccccc1-c1ccc(Cn2c(CCC)nc(SC)c2C(=O)O)cc1
IC50 [5]: 775 nM
IC50 [6]: 0.3 nM

SMILES: CCc1nc2ccc(NC(=O)N(C)C(C)C)cc2c(=O)n1Cc1ccc(-c2ccccc2S(=O)(=O)NC(=O)OCCC2CC2)cc1F
bioavailability [14]: 17%
bioavailability [1]: 23%

SMILES: CCCc1nc(CC)c(C(=O)OCc2ccccc2C(=O)c2ccccc2)n1Cc1ccc(-c2ccccc2S(=O)(=O)NC(=O)OCCC(C)C)cc1F
IC50 [5]: 0.69 nM
IC50 [6]: 570 nM
ED30 [10]: 0.05 mg/kg
ED30 [11]: 0.9 mg/kg

SMILES: CCCCc1nn(-c2ccccc2C(F)(F)F)c(=O)n1Cc1ccc(-c2ccccc2S(=O)(=O)NC(=O)c2ccccc2)cc1 [L-159913]
IC50 [8]: 450 nM

SMILES: COc1ccc2c(c1OCc1ccccc1)C[C@@H](C(=O)O)N(C(=O)C(c1ccccc1)c1ccccc1)C2 [OLODANRIGAN]
IC50 [15]: > 100000 nM

SMILES: Cc1nc(C)c2c(n1)N(Cc1ccc(-c3ccccc3-c3nnn[nH]3)cc1)C(=O)CC2 [TASOSARTAN]
ED60 [11]: 0.58 mg/kg

SMILES: CCCCc1nc(Cl)c(C(=O)O)n1Cc1ccc2oc(-c3ccccc3-c3nnn[nH]3)c(Br)c2c1 [ZOLASARTAN]
bioavailability [1]: 3%
Log Ki [4]: -9
pKB [3]: 9.8

Further lines, with some results ahead:

F [1]: 11%
Ki [2]: 2.9 nM
SMILES: O=C(O)c1c(Oc2ccc(-c3ccccc3-c3nn[nH]n3)cc2)c(C2CC2)nc2ccccc12
Kb [3]: 0.061 nM

IC50 [9]: 3.1 nM
SMILES: CCCc1nc(C(F)(F)C(F)(F)F)c(C(=O)O)n1Cc1ccc(-c2ccccc2-c2nn[nH]n2)cc1
ED30 [10]: 0.02 mg/kg
ED30 [11]: 0.21 mg/kg

IC50 [12]: 1.9 nM
SMILES: CCCc1nc(CC)c(C=O)n1Cc1ccc(-c2ccccc2S(=O)(=O)NC(=O)c2ccccc2)cc1

IC50 [13]: 52 nM
SMILES: Cc1ccnc2c1nc(C1CC1)n2Cc1ccc(-c2ccccc2C(=O)O)cc1

bioavailability [1]: 12%
SMILES: CCCCc1nc(Cl)c(C(=O)O)n1Cc1ccc(-c2ccccc2-c2nn[nH]n2)cc1 [CARBOXYLIC ACID METABOLITE]
ED30 [10]: 0.04 mg/kg
ED30 [11]: 0.66 mg/kg

IC50 ([15]; read-out: IC50): 6 nM
SMILES: CCCCc1nc2ccc(C(C)(C)OC)cc2c(=O)n1Cc1ccc(-c2ccccc2-c2nn[nH]n2)cc1 [CL-329167]

IC50 [13]: 0.8 nM
SMILES: CCCc1nc2c(n1Cc1ccc(-c3ccccc3-c3nnn[nH]3)cc1)C(=O)CCCC2 [PRATOSARTAN]
